Legend:
Cathepsin D (Cat D) = target: T1, Cathepsin D (Cat D) (Homo sapiens, UniProt P07339); assay: In vitro enzymatic Cathepsin D (Cat D) FRET assay; type: biochemical; conditions: read-out: CatD IC50
T1 construct: Recombinant Cat D was expressed in CHO cells; made in house; host or cells: CHO cells
Procedure, shortened: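 Recombinant Cat D expressed in CHO cells, used at 9 nM and pre-incubated one hour with serially diluted inhibitor in DMSO. Peptide substrate carries a fluorophore and quencher flanking the cleavage site; reaction stopped with Tris buffer raising pH to neutrality, then fluorescence read.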

[1] = tested on: Aβ40 in conditioned medium of cells stably expressing Amyloid Precursor Protein (APP); assay: In vitro BACE cell-based assay (HEK cell assay), Aβ40 sandwich ELISA; conditions: Homo sapiens, HEK293
Procedure, shortened: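 APP-stably expressing cells (40K/well, grown 24 h in DMEM/10% FBS) were treated 24 h with compounds in 10-point dose response starting at 100 μM or 10 μM, 0.1% DMSO final. Secreted Aβ40 was measured by sandwich ELISA (pAb40 capture, biotinylated 6E10 detection, europium time-resolved fluorescence); IC50 from percent inhibition.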

[2] = target: Beta Secretase enzyme (BACE1) (Homo sapiens, UniProt P56817); assay: In vitro enzymatic BACE FRET assay; type: biochemical; conditions: read-out: BACE1 FRET assay IC50
Beta Secretase enzyme (BACE1), sequence (P56817 46-501): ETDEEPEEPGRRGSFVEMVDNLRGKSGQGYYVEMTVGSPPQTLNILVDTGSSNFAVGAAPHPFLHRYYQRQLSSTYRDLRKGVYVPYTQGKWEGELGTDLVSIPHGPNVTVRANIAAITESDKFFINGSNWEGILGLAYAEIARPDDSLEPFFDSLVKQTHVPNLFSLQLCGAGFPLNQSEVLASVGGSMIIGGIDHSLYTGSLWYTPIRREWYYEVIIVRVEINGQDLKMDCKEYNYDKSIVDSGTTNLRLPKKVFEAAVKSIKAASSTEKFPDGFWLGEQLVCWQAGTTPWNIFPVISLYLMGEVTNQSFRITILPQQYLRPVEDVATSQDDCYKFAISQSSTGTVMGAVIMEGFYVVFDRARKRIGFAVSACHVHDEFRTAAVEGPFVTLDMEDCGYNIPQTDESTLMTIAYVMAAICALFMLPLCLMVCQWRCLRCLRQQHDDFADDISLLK
Procedure, shortened: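 BACE1 cleavage of a 50 nM fluorophore/quencher peptide FRET substrate ran for one hour in 0.05 M acetate pH 4.2, 10% DMSO, 100 uM genapol. Tris buffer raised pH to neutrality to stop the reaction before fluorescence was read (excitation 488 nm, […]).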

T1 sequence (P07339 65-412, species assumed): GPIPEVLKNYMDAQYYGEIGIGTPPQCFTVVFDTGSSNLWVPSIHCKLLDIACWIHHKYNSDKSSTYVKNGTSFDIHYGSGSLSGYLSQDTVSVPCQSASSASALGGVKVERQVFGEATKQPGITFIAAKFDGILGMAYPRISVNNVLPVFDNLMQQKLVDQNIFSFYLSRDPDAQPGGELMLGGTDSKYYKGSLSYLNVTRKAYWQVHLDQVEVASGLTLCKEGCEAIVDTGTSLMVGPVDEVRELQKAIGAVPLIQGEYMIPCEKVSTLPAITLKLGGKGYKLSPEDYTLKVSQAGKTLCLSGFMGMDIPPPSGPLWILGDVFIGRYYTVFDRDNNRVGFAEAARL

Structure (SMILES) | IC50 (Cathepsin D (Cat D)) [µM] | IC50 [1] [µM] | IC50 [2] [µM]
COc1cc(Cl)cnc1C(=O)Nc1ccc(F)c([C@]2(CF)CS(=O)(=O)C(C)(C)C(N)=N2)c1 [Example 382, N-(3-((3S)-5-amino-3-(fluoromethyl)-6,6-dimethyl-1,1-dioxido-3,6-dihydro-2H-1,4-thiazin-3-yl)-4-fluorophenyl)-5-chloro-3-methoxy-2-pyridinecarboxamide] | > 400 | 0.0173 | 0.0018
CC1(C)C(N)=N[C@](CF)(c2cc(NC(=O)c3ccc(C(F)(F)F)cn3)ccc2F)CS1(=O)=O [Example 383, N-(3-((3S)-5-amino-3-(fluoromethyl)-6,6-dimethyl-1,1-dioxido-3,6-dihydro-2H-1,4-thiazin-3-yl)-4-fluorophenyl)-5-(trifluoromethyl)-2-pyridinecarboxamide] | 217 | 0.02 | 0.00262
CC1(C)C(N)=N[C@](C)(c2cc(Nc3ncnc4cc(C#N)cnc34)cnc2F)CS1(=O)=O [Example 384, 4-((5-((3R)-5-amino-3,6,6-trimethyl-1,1-dioxido-3,6-dihydro-2H-1,4-thiazin-3-yl)-6-fluoro-3-pyridinyl)amino)pyrido[3,2-d]pyrimidine-7-carbonitrile] | 47.3 | 0.0239 | 0.00636
CC1(C)C(N)=N[C@](C)(c2cc(Nc3nccc4cc(C#N)cnc34)cnc2F)CS1(=O)=O [Example 385, 8-((5-((3R)-5-amino-3,6,6-trimethyl-1,1-dioxido-3,6-dihydro-2H-1,4-thiazin-3-yl)-6-fluoro-3-pyridinyl)amino)-1,7-naphthyridine-3-carbonitrile] | 67.6 | 0.0037 | 0.00262
C[C@@]1(c2cc(Nc3nccc4cc(C#N)cnc34)cnc2F)CS(=O)(=O)C2(CCC2)C(N)=N1 [Example 386, 8-((5-((7R)-9-amino-7-methyl-5,5-dioxido-5-thia-8-azaspiro[3.5]non-8-en-7-yl)-6-fluoro-3-pyridinyl)amino)-1,7-naphthyridine-3-carbonitrile] | 54.7 | 0.0141 | 0.00409
CC1(C)C(N)=N[C@](CF)(c2cc(Nc3nccc4cc(C#N)cnc34)ccc2F)CS1(=O)=O [Example 387, 8-((3-((3S)-5-amino-3-(fluoromethyl)-6,6-dimethyl-1,1-dioxido-3,6-dihydro-2H-1,4-thiazin-3-yl)-4-fluorophenyl)amino)-1,7-naphthyridine-3-carbonitrile] | 117 | 0.0053 | 0.00044
Cc1cc(Cl)cnc1C(=O)Nc1ccc(F)c([C@]2(C)CS(=O)(=O)[C@@](C)(F)C(N)=N2)c1 [Example 388, N-(3-((3R,6R)-5-amino-6-fluoro-3,6-dimethyl-1,1-dioxido-3,6-dihydro-2H-1,4-thiazin-3-yl)-4-fluorophenyl)-5-chloro-3-methyl-2-pyridinecarboxamide] | 230 | 0.0479 | 0.0004
CC1(C)C(N)=N[C@](CF)(c2cc(NC(=O)c3ccc(OCC#CCF)cn3)ccc2F)CS1(=O)=O [Example 389, N-(3-((3S)-5-amino-3-(fluoromethyl)-6,6-dimethyl-1,1-dioxido-3,6-dihydro-2H-1,4-thiazin-3-yl)-4-fluorophenyl)-5-((4-fluoro-2-butyn-1-yl)oxy)-2-pyridinecarboxamide] | 268 | 0.0014 | 0.00026
Cc1c(C(=O)Nc2ccc(F)c([C@]3(CF)CS(=O)(=O)C(C)(C)C(N)=N3)c2)nc2ccc(C#N)cn12 [Example 390, N-(3-((3S)-5-amino-3-(fluoromethyl)-6,6-dimethyl-1,1-dioxido-3,6-dihydro-2H-1,4-thiazin-3-yl)-4-fluorophenyl)-6-cyano-3-methylimidazo[1,2-a]pyridine-2-carboxamide] | 379 | 0.0236 | 0.00485
CC1(C)C(N)=N[C@](CF)(c2cc(NC(=O)c3cn4cc(Cl)ccc4n3)ccc2F)CS1(=O)=O [Example 391, N-(3-((3S)-5-amino-3-(fluoromethyl)-6,6-dimethyl-1,1-dioxido-3,6-dihydro-2H-1,4-thiazin-3-yl)-4-fluorophenyl)-6-chloroimidazo[1,2-a]pyridine-2-carboxamide] | 303 | 0.0361 | 0.00969
COc1ccc2nc(C(=O)Nc3ccc(F)c([C@]4(CF)CS(=O)(=O)C(C)(C)C(N)=N4)c3)c(C)n2c1 [Example 392, N-(3-((3S)-5-amino-3-(fluoromethyl)-6,6-dimethyl-1,1-dioxido-3,6-dihydro-2H-1,4-thiazin-3-yl)-4-fluorophenyl)-6-methoxy-3-methylimidazo[1,2-a]pyridine-2-carboxamide] | 97.6 | 0.823 | 0.104
Cc1c(C(=O)Nc2ccc(F)c([C@]3(CF)CS(=O)(=O)C(C)(C)C(N)=N3)c2)nc2ccc(F)cn12 [Example 393, N-(3-((3S)-5-amino-3-(fluoromethyl)-6,6-dimethyl-1,1-dioxido-3,6-dihydro-2H-1,4-thiazin-3-yl)-4-fluorophenyl)-6-fluoro-3-methylimidazo[1,2-a]pyridine-2-carboxamide] | 103 | 0.0605 | 0.0117
CCc1c(C(=O)Nc2ccc(F)c([C@]3(CF)CS(=O)(=O)C(C)(C)C(N)=N3)c2)nc2ccc(Cl)cn12 [Example 394, N-(3-((3S)-5-amino-3-(fluoromethyl)-6,6-dimethyl-1,1-dioxido-3,6-dihydro-2H-1,4-thiazin-3-yl)-4-fluorophenyl)-6-chloro-3-ethylimidazo[1,2-a]pyridine-2-carboxamide] | > 14.8 | 0.0235 | 0.0083
CC(C)c1c(C(=O)Nc2ccc(F)c([C@]3(CF)CS(=O)(=O)C(C)(C)C(N)=N3)c2)nc2ccc(Cl)cn12 [Example 395, N-(3-((3S)-5-amino-3-(fluoromethyl)-6,6-dimethyl-1,1-dioxido-3,6-dihydro-2H-1,4-thiazin-3-yl)-4-fluorophenyl)-6-chloro-3-(1-methylethyl)imidazo[1,2-a]pyridine-2-carboxamide] | 822 | 0.125 | 0.0377
Cc1cc(Cl)cnc1C(=O)Nc1ccc(F)c([C@]23C[C@H]2S(=O)(=O)C(C)(C)C(N)=N3)c1 [Example 396, N-(3-((1R,6R)-4-amino-3,3-dimethyl-2,2-dioxido-2-thia-5-azabicyclo[4.1.0]hept-4-en-6-yl)-4-fluorophenyl)-5-chloro-3-methyl-2-pyridinecarboxamide] | 187 | 0.862 | 0.00239
Cc1nc(F)c([C@]2(C)CS(=O)(=O)C(C)(C)C(N)=N2)cc1NC(=O)c1ccc(Cl)cn1 [Example 397, N-(5-((3R)-5-amino-3,6,6-trimethyl-1,1-dioxido-3,6-dihydro-2H-1,4-thiazin-3-yl)-6-fluoro-2-methyl-3-pyridinyl)-5-chloro-2-pyridinecarboxamide] | 523 | 3.25 | 3.04
CC1(C)C(N)=N[C@](C)(c2cc(NC(=O)c3ccc(Cl)cn3)cnc2F)CS1(=O)=O [Example 398, N-(5-((3R)-5-amino-3,6,6-trimethyl-1,1-dioxido-3,6-dihydro-2H-1,4-thiazin-3-yl)-6-fluoro-3-pyridinyl)-5-chloro-2-pyridinecarboxamide] | 183 | 0.0114 | 0.002
CC1(C)C(N)=N[C@](C)(c2cc(NC(=O)c3ccc(F)cn3)cnc2F)CS1(=O)=O [Example 399, N-(5-((3R)-5-amino-3,6,6-trimethyl-1,1-dioxido-3,6-dihydro-2H-1,4-thiazin-3-yl)-6-fluoro-3-pyridinyl)-5-fluoro-2-pyridinecarboxamide] | 419 | 0.0393 | 0.0031
Cc1cc(OC(F)F)cnc1C(=O)Nc1cnc(F)c([C@]2(C)CS(=O)(=O)C(C)(C)C(N)=N2)c1 [Example 400, N-(5-((3R)-5-amino-3,6,6-trimethyl-1,1-dioxido-3,6-dihydro-2H-1,4-thiazin-3-yl)-6-fluoro-3-pyridinyl)-5-(difluoromethoxy)-3-methyl-2-pyridinecarboxamide] | 156 | 0.0089 | 0.0014
COc1ccc(C(=O)Nc2cnc(F)c([C@]3(C)CS(=O)(=O)C(C)(C)C(N)=N3)c2)nc1 [Example 401, N-(5-((3R)-5-amino-3,6,6-trimethyl-1,1-dioxido-3,6-dihydro-2H-1,4-thiazin-3-yl)-6-fluoro-3-pyridinyl)-5-methoxy-2-pyridinecarboxamide] | 757 | 0.0179 | 0.00398
CC1(C)C(N)=N[C@](C)(c2cc(NC(=O)c3cnc(OCC(F)(F)F)cn3)cnc2F)CS1(=O)=O [Example 402, N-(5-((3R)-5-amino-3,6,6-trimethyl-1,1-dioxido-3,6-dihydro-2H-1,4-thiazin-3-yl)-6-fluoro-3-pyridinyl)-5-(2,2,2-trifluoroethoxy)-2-pyrazinecarboxamide] | 2780 | 0.011 | 0.0011
CC1(C)C(N)=N[C@](C)(c2cc(NC(=O)c3ccc(C#N)cn3)cnc2F)CS1(=O)=O [Example 403, N-(5-((3R)-5-amino-3,6,6-trimethyl-1,1-dioxido-3,6-dihydro-2H-1,4-thiazin-3-yl)-6-fluoro-3-pyridinyl)-5-cyano-2-pyridinecarboxamide] | 233 | 0.0146 | 0.0019

Reference: patent publication US20140107109A1, “AMINO-DIHYDROTHIAZINE AND AMINO-DIOXIDO DIHYDROTHIAZINE COMPOUNDS AS BETA-SECRETASE ANTAGONISTS AND METHODS OF USE” (Amgen Inc., priority 2012, published 2014)
